Experimental data as given in US20060228297A1, “Thorium-227 for use in radiotherapy of soft tissue disease” (priority 2003, published 2006).
Like-named read-outs stand apart in the source and are kept apart here.

Experiments:
adult dogs = details: cited from earlier work; for % of baseline at nadir (neutrophils) / Days to nadir (neutrophils): dogs
[1] = system: CD20 antigen expressing human lymphoma cell line DAUDI; test: Binding of ^227Th labeled antibody to DAUDI human lymphoma cells; details: for Mean cpm bound per cell pellet, Unblocked: 2×10^7 DAUDI cells, two hours at 8° C., mean of a duplicate; for Mean cpm bound per cell pellet, Blocked: cells pre-saturated with 40 μg unlabeled rituximab; for Thorium-227 atoms bound per cell, Blocked: cells pre-saturated with unlabeled rituximab
Method: DAUDI cells were purchased from European Collection of Cell Cultures (ECACC), Salisbury, UK, and grown according to supplier's instructions using culture medium and supplement from Gibco (Paisley, Scotland, UK) and using 500 ml culture flasks (Cell Star, Greiner Bio-One GmbH, Frickenhausen, Germany). DAUDI cells (2×10^7 cells in 0.7 ml PBS) were used to study binding of ^227Th labeled rituximab in vitro. As control of nonspecific binding, DAUDI cells pre-saturated (blocked) with 40 μg unlabeled rituximab for 15 minutes were used. To the test tubes (Polystyrene culture test tubes, 12×75 mm, Elkay, Shrewsbury, Mass., USA) were added ^227Th labeled rituximab corresponding to 1.3, 5.3, or 26 μg/ml respectively. The experiment was performed in duplicate at each concentration level using unblocked and blocked cells. Incubation was performed for two hours at 8° C. After incubation, cell suspensions were counted for radioactivity (Crystal II Multidetector, Packard Instrument Company Inc. Downers Grove, Ill., USA) and the cells washed with 2 ml of 1% BSA (Albumin, Bovine Fraction V, Sigma Chemical Co., St. Louis, Mo., USA) in PBS (Gibco, Paisley, Scotland, UK) and centrifuged (Centrifuge 5810 R, Eppendorf AG, Hamburg, Germany) at 200 rpm for 5 minutes. The washing/centrifugation was repeated twice. Thereafter the cell pellets were counted for radioactivity. The results (each the mean of a duplicate) are set out in Table 3 below.

[2] = 13 kBq/kg single intravenous injection
[3] = 40 kBq/kg single intravenous injection
[4] = 120 kBq/kg single intravenous injection
[5] = 350 kBq/kg single intravenous injection

[224Ra] [^224Ra, radium-224]
Death caused by haematological dyscrasia resulting from bone marrow destruction, number of dogs (adult dogs; 350 kBq/kg): 3 dogs out of 8 | % of baseline at nadir (neutrophils) (adult dogs; [2]): 60% | Days to nadir (neutrophils) (adult dogs; [2]): 30 days | % of baseline at nadir (neutrophils) (adult dogs; [3]): 70% | Days to nadir (neutrophils) (adult dogs; [3]): 10 days | % of baseline at nadir (neutrophils) (adult dogs; [4]): 20% | Days to nadir (neutrophils) (adult dogs; [4]): 10 days | % of baseline at nadir (neutrophils) (adult dogs; [5]): 4% | Days to nadir (neutrophils) (adult dogs; [5]): 10 days

^227Th-labeled rituximab
Thorium-227 atoms bound per cell, Net specific bound ([1]; RIC conc. 1.3 μg/ml added): 1.7 | Thorium-227 atoms bound per cell, Unblocked ([1]; RIC conc. 1.3 μg/ml added): 1.9 | Mean cpm bound per cell pellet, Unblocked ([1]; RIC conc. 1.3 μg/ml added): 226 cpm | Mean cpm bound per cell pellet, Blocked ([1]; RIC conc. 1.3 μg/ml added): 25 cpm | Thorium-227 atoms bound per cell, Blocked ([1]; RIC conc. 1.3 μg/ml added): 0.2 | Thorium-227 atoms bound per cell, Net specific bound ([1]; RIC conc. 5.3 μg/ml added): 9.3 | Thorium-227 atoms bound per cell, Unblocked ([1]; RIC conc. 5.3 μg/ml added): 10.1 | Mean cpm bound per cell pellet, Unblocked ([1]; RIC conc. 5.3 μg/ml added): 1186 cpm | Mean cpm bound per cell pellet, Blocked ([1]; RIC conc. 5.3 μg/ml added): 97 cpm | Thorium-227 atoms bound per cell, Blocked ([1]; RIC conc. 5.3 μg/ml added): 0.8 | Thorium-227 atoms bound per cell, Net specific bound ([1]; RIC conc. 26.0 μg/ml added): 32.5 | Thorium-227 atoms bound per cell, Unblocked ([1]; RIC conc. 26.0 μg/ml added): 35.2 | Mean cpm bound per cell pellet, Unblocked ([1]; RIC conc. 26.0 μg/ml added): 4141 cpm | Mean cpm bound per cell pellet, Blocked ([1]; RIC conc. 26.0 μg/ml added): 315 cpm | Thorium-227 atoms bound per cell, Blocked ([1]; RIC conc. 26.0 μg/ml added): 2.7 | RIC bound to the unblocked vs. the blocked cells ([1]; on average over the three concentrations): about 12 times | Specific binding to the DAUDI cells ([1]; unblocked vs. blocked cells): did bind specifically
